Data as given in PubChem BioAssay AID264 (DTP/NCI, 2004).
Results filed as inconclusive are left out.

System: nude mice, LX-1 lung xenograft intrarenal, tumor weight T/C
Assay: NCI In Vivo Anticancer Drug Screen. Data for tumor model Human Lung LX-1 Xenograft (intrarenal inoculation) in NU/NU Swiss (nude) mice
Settings: endpoint: mean tumor weight change, higher = larger tumour
In short: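 Antitumor effect is expressed as a ratio: the mean tumor measurement of the drug-treated group relative to that of the vehicle-dosed control group.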

[1] = dose: 100.0 mg/kg/injection, schedule: Q04DX003 (sc), vehicle: Klucel (hydroxypropylcellulose) (HPC)
[2] = dose: 400.0 mg/kg/injection, schedule: Q04DX003 (sc), vehicle: Klucel (hydroxypropylcellulose) (HPC)
[3] = dose: 600.0 mg/kg/injection, schedule: Q04DX003 (sc), vehicle: saline with Tween-80
[4] = dose: 25.0 mg/kg/injection, schedule: Q01DX010 (sc), vehicle: saline with Tween-80
[5] = dose: 300.0 mg/kg/injection, schedule: Q04DX003 (sc), vehicle: water
[6] = dose: 600.0 mg/kg/injection, schedule: Q04DX003 (sc), vehicle: water
[7] = dose: 1200.0 mg/kg/injection, schedule: Q04DX003 (sc), vehicle: water

## OCC1OC(n2cnc3c(NO)ncnc32)C(O)C1O (stereo not given)
dose: 300.0 mg/kg/injection, schedule: Q04DX003 (sc), vehicle: Klucel (hydroxypropylcellulose) (HPC)
  T/C: 105 % of control
dose: 600.0 mg/kg/injection, schedule: Q04DX003 (sc), vehicle: Klucel (hydroxypropylcellulose) (HPC)
  T/C: 102 % of control
dose: 1200.0 mg/kg/injection, schedule: Q04DX003 (sc), vehicle: Klucel (hydroxypropylcellulose) (HPC)
  T/C: 86 % of control
dose: 2400.0 mg/kg/injection, schedule: Q04DX003 (sc), vehicle: Klucel (hydroxypropylcellulose) (HPC)
  T/C: 68 % of control

## CC(=O)O[C@@H]1CO[C@H]2O[C@H]3[C@@H](C(C=O)=C[C@H](O)[C@@H]4C5=C(C(C)C)CC[C@]5(C)CC[C@@]34C)[C@@]2(O)C1=O
[1]
  T/C: 94 % of control
[2]
  T/C: 54 % of control

## COc1cc2cc3c4cc(OC)c(OC)cc4cc[n+]3c(C)c2cc1OC (tested in a mixture with another compound)
dose: 50.0 mg/kg/injection, schedule: Q01DX010 (sc), vehicle: saline
  T/C: 118 % of control
dose: 100.0 mg/kg/injection, schedule: Q01DX010 (sc), vehicle: saline
  T/C: 46 % of control

## O=C1NC(=O)/C(=C/C=C/c2ccccc2)S1
dose: 300.0 mg/kg/injection, schedule: Q04DX003 (sc), vehicle: saline with Tween-80
  T/C: 87 % of control
[3]
  T/C: 118 % of control
dose: 1200.0 mg/kg/injection, schedule: Q04DX003 (sc), vehicle: saline with Tween-80
  T/C: 94 % of control
dose: 2400.0 mg/kg/injection, schedule: Q04DX003 (sc), vehicle: saline with Tween-80
  T/C: 62 % of control

## O=C1NC(c2ccccc2)N=C2Oc3ccccc3C=C12 (stereo not given)
dose: 12.5 mg/kg/injection, schedule: Q01DX010 (sc), vehicle: saline with Tween-80
  T/C: 186 % of control
[4]
  T/C: 123 % of control
dose: 50.0 mg/kg/injection, schedule: Q01DX010 (sc), vehicle: saline with Tween-80
  T/C: 85 % of control
dose: 100.0 mg/kg/injection, schedule: Q01DX010 (sc), vehicle: saline with Tween-80
  T/C: 105 % of control
dose: 200.0 mg/kg/injection, schedule: Q01DX010 (sc), vehicle: saline with Tween-80
  T/C: 58 % of control

## CN(Cc1cnc2nc(N)nc(N)c2n1)c1c(Cl)cc(C(=O)NC(CCC(=O)O)C(=O)O)cc1Cl (stereo not given)
dose: 12.5 mg/kg/injection, schedule: Q01DX010 (sc), vehicle: Klucel (hydroxypropylcellulose) (HPC)
  T/C: 73 % of control
dose: 25.0 mg/kg/injection, schedule: Q01DX010 (sc), vehicle: Klucel (hydroxypropylcellulose) (HPC)
  T/C: 48 % of control
dose: 50.0 mg/kg/injection, schedule: Q01DX010 (sc), vehicle: Klucel (hydroxypropylcellulose) (HPC)
  T/C: 45 % of control

## CS(=O)(=O)OCCCCOS(C)(=O)=O
[4]
  T/C: 41 % of control

## O=C(NO)c1cc(O)c(O)c(O)c1
dose: 200.0 mg/kg/injection, schedule: Q04DX003 (sc), vehicle: distilled water + Tween-80
  T/C: 66 % of control
dose: 400.0 mg/kg/injection, schedule: Q04DX003 (sc), vehicle: distilled water + Tween-80
  T/C: 87 % of control
dose: 800.0 mg/kg/injection, schedule: Q04DX003 (sc), vehicle: distilled water + Tween-80
  T/C: 100 % of control
dose: 1600.0 mg/kg/injection, schedule: Q04DX003 (sc), vehicle: distilled water + Tween-80
  T/C: 90 % of control

## NC(=O)Oc1cccc(OC(N)=O)c1
[5]
  T/C: 105 % of control
[6]
  T/C: 89 % of control
[7]
  T/C: 67 % of control
dose: 2400.0 mg/kg/injection, schedule: Q04DX003 (sc), vehicle: water
  T/C: 54 % of control

## O=NN(CCCl)C(=O)NC1CCC(=O)NC1=O (stereo not given)
dose: 1.56 mg/kg/injection, schedule: Q01DX010 (ip), vehicle: saline with Tween-80
  T/C: 29 % of control
dose: 3.13 mg/kg/injection, schedule: Q01DX010 (ip), vehicle: saline with Tween-80
  T/C: 3 % of control
dose: 3.13 mg/kg/injection, schedule: Q01DX010 (sc), vehicle: saline with Tween-80
  T/C: 10 % of control
dose: 5.2 mg/kg/injection, schedule: Q04DX003 (ip), vehicle: saline with Tween-80
  T/C: 5 % of control
dose: 6.25 mg/kg/injection, schedule: Q01DX010 (ip), vehicle: saline with Tween-80
  T/C: -74 % of control
dose: 10.4 mg/kg/injection, schedule: Q04DX003 (ip), vehicle: saline with Tween-80
  T/C: -94 % of control

## COc1ccc(S(=O)(=O)N=N/C=C2\C=CC=CN2O)cc1OC
dose: 75.0 mg/kg/injection, schedule: Q04DX003 (sc), vehicle: saline with Tween-80
  T/C: 111 % of control
dose: 150.0 mg/kg/injection, schedule: Q04DX003 (sc), vehicle: saline with Tween-80
  T/C: 124 % of control
[3]
  T/C: 11 % of control

## CC(C)[C@](O)(C(=O)OCC1=CCN2CC[C@@H](O)[C@@H]12)[C@H](C)O
dose: 150.0 mg/kg/injection, schedule: Q04DX003 (sc), vehicle: water
  T/C: 80 % of control
[5]
  T/C: 91 % of control
[6]
  T/C: 82 % of control
[7]
  T/C: 70 % of control

## CCC1(O)CC2CN(CCc3c([nH]c4ccccc34)C(C(=O)OC)(c3cc4c(cc3OC)N(C)C3C(O)(C(N)=O)C(O)C5(CC)C=CCN6CCC43C65)C2)C1 (stereo not given) (tested in a mixture with another compound)
dose: 1.5 mg/kg/injection, schedule: Q04DX003 (sc), vehicle: water
  T/C: 28 % of control

## COC1C(O)CC(OC2CC(Oc3cc4cc5c(c(O)c4c(O)c3C)C(=O)[C@@H](OC3CC(OC4CC(OC6CC(C)(O)C(OC(C)=O)C(C)O6)C(O)C(C)O4)C(O)C(C)O3)[C@H]([C@H](OC)C(=O)[C@@H](O)[C@@H](C)O)C5)OC(C)C2OC(C)=O)OC1C (stereo not given in full)
dose: 0.3 mg/kg/injection, schedule: Q04DX003 (sc), vehicle: Klucel (hydroxypropylcellulose) (HPC)
  T/C: 87 % of control
dose: 0.6 mg/kg/injection, schedule: Q04DX003 (sc), vehicle: Klucel (hydroxypropylcellulose) (HPC)
  T/C: 68 % of control
dose: 1.2 mg/kg/injection, schedule: Q04DX003 (sc), vehicle: Klucel (hydroxypropylcellulose) (HPC)
  T/C: 36 % of control

## CC1=C(C)C(=O)O[C@@H]([C@](C)(O)[C@]2(O)CC[C@@]3(O)[C@@H]4C[C@H]5O[C@]56CC=CC(=O)[C@]6(C)[C@H]4CC[C@]23C)C1
dose: 150.0 mg/kg/injection, schedule: Q04DX003 (sc), vehicle: suspension in saline
  T/C: 112 % of control
dose: 300.0 mg/kg/injection, schedule: Q04DX003 (sc), vehicle: suspension in saline
  T/C: 84 % of control
dose: 600.0 mg/kg/injection, schedule: Q04DX003 (sc), vehicle: suspension in saline
  T/C: 46 % of control
dose: 1200.0 mg/kg/injection, schedule: Q04DX003 (sc), vehicle: suspension in saline
  T/C: 81 % of control

## O=C[C@@H](CO)O[C@H](C=O)n1cnc2c(=O)[nH]cnc21
dose: 100.0 mg/kg/injection, schedule: Q04DX003 (sc), vehicle: suspension in saline
  T/C: 71 % of control
dose: 200.0 mg/kg/injection, schedule: Q04DX003 (sc), vehicle: suspension in saline
  T/C: 57 % of control
dose: 400.0 mg/kg/injection, schedule: Q04DX003 (sc), vehicle: suspension in saline
  T/C: 59 % of control
dose: 800.0 mg/kg/injection, schedule: Q04DX003 (sc), vehicle: suspension in saline
  T/C: 54 % of control

## c1cnc2ncncc2n1
dose: 50.0 mg/kg/injection, schedule: Q04DX003 (sc), vehicle: saline with Tween-80
  T/C: 150 % of control
dose: 100.0 mg/kg/injection, schedule: Q04DX003 (sc), vehicle: saline with Tween-80
  T/C: 81 % of control

## C[CH2][Sn]([CH2]C)([CH2]C(=O)OC)[CH2]C(=O)OC
dose: 6.25 mg/kg/injection, schedule: Q04DX003 (sc), vehicle: saline with Tween-80
  T/C: 97 % of control
dose: 12.5 mg/kg/injection, schedule: Q04DX003 (sc), vehicle: saline with Tween-80
  T/C: 92 % of control
dose: 25.0 mg/kg/injection, schedule: Q04DX003 (sc), vehicle: saline with Tween-80
  T/C: 70 % of control

## O=C1C(O)=C(c2ccccc2)C(=O)C(O)=C1c1ccccc1
dose: 75.0 mg/kg/injection, schedule: Q04DX003 (sc), vehicle: saline
  T/C: 80 % of control
dose: 150.0 mg/kg/injection, schedule: Q04DX003 (sc), vehicle: saline
  T/C: 71 % of control

## CSc1nc(=O)[nH]nc1SCc1ccccc1
[1]
  T/C: 101 % of control
dose: 200.0 mg/kg/injection, schedule: Q04DX003 (sc), vehicle: Klucel (hydroxypropylcellulose) (HPC)
  T/C: 93 % of control
[2]
  T/C: 64 % of control
dose: 800.0 mg/kg/injection, schedule: Q04DX003 (sc), vehicle: Klucel (hydroxypropylcellulose) (HPC)
  T/C: 68 % of control

## O=C1C=C(C2OC(CO)C(O)C2O)C(=O)N1 (stereo not given)
dose: 6.25 mg/kg/injection, schedule: Q01DX010 (sc), vehicle: saline
  T/C: 37 % of control
dose: 12.5 mg/kg/injection, schedule: Q01DX010 (sc), vehicle: saline
  T/C: 46 % of control
dose: 25.0 mg/kg/injection, schedule: Q01DX010 (sc), vehicle: saline
  T/C: 66 % of control

## OCCOCC(F)(F)F
dose: 300.0 mg/kg/injection, schedule: Q04DX003 (sc), vehicle: saline
  T/C: 78 % of control
dose: 600.0 mg/kg/injection, schedule: Q04DX003 (sc), vehicle: saline
  T/C: 95 % of control
